Where two headings read alike, the source gives them in different places.
How the values were obtained:
[1] = system: A549 murine xenografts; conditions: A549 murine xenograft; cited from earlier work
[2] = system: HCT116 murine xenografts; conditions: HCT116 murine xenograft; cited from earlier work
[3] = system: NClH460 murine xenografts; conditions: NClH460 murine xenograft; cited from earlier work
[4] = in man; cited from earlier work
[5] = system: HeLa Cells; experiment: pHH3(S10), Mitotic Cells, and DNA Content Assays; format: cell-based; conditions: Homo sapiens, 23 hours exposure
Method: HeLa Cells from the American Type Culture Collection (ATCC) are plated at 200 cells/well in 96 well […] BIOCOAT™ plates, and are incubated in MEM (Minimum Essential Medium, e.g., GIBCO, catalog #11095) with 10% FBS (Fetal Bovine Serum) in 37° C., 5% CO2 for 24 hours. Cells are treated by adding compound (in 0.25% DMSO) to the medium, dosing at 10 points across the range […] to 0.0098 μM. After 23 hours exposure to the compounds, cells are fixed, for example with the PREFER™ fixative [Anatech LTD., Catalog #414] for 30 min then are permeablized with 0.1% TRITON® X100 in phosphate buffered saline (PBS) solution for 15 min. Cells are washed 3 times with PBS then digested with 50 μg/mL RNAse. Primary antibody, phosphohistone H3 (Upstate Cat#06-570), is added at 1:500 in PBS with 1% bovine serum albumin (BSA) to the cells over night at 4° C. After 3 PBS washes, cells are incubated with Alexa488 labeled secondary antibody (Invitrogen cat #A11008) for 1 hour at room temperature. Again they are washed 3 times with PBS, and then 15 μM propidium iodide (Molecular Probes cat #P3566) is added for 30 min to stain nuclei. Fluorescence Plates are scanned with ACUMEN EXPLORER™ [Laser-scanning fluorescence microplate cytometer (comprising of 488 nm argon ion laser excitation and multiple photomultiplier tube detection), manufactured by TTP LABTECH LTD] to measure phosphohistone H3, DNA content and mitotic cells as measured by DNA condensation. Image analysis are based on cellular fluorescent signals for identifying cells in different subpopulations. pHH3(S10) positive cells are identified by mean intensity at 500-530 nm above the threshold. Total intensity at 655-705 nm from propidium iodide/DNA is used to identify individual cells (cells with DNA content from 2N to 4N) and subpopulations in cell cycle (2N cells, 4N cells). Peak intensity at 575-640 nm is used to identify DNA condensation that is used as the marker to identify mitotic cells among 4N cells. […] The ECso is determined by curve fitting to a four parameter logistic for each output using ACTIVITY BASE™.

[6] = system: HCT116 cells; experiment: Antiproliferative Assay; format: cell-based; conditions: Homo sapiens, HCT-116, 72 hours, Alamar Blue, n=3, MSR 3.1
Method: The effects of compounds on cell proliferation can be determined using cells and cell proliferation methods well-known in the art (Robert C. Squatrito et al., Gynecological Oncology, 58, 101-105, (1995)). For example, HCT116 cells, which may be obtained from the American Type Culture Collection, may be seeded at ˜2000 cells/well in 96-well plates and allowed to attach overnight in a humidified CO2 incubator at 37° C. Following the 20-24 hour incubation, half-log serially diluted compounds are added and the plates are returned to the incubator. After an appropriate length of exposure (e.g., 72 hours), cell proliferation is estimated using well-known methods. In one method, 10 μL of a tetrazolium salt, such as Alamar Blue™ is added to the cell plates. After an appropriate exposure to the dye, fluorescence (530 nm excitation, 580 nm emission) is determined. The resulting IC50 has an MSR of 3.1.

[7] = biological target: T1, Plk1 (Homo sapiens, UniProt P53350); experiment: Plk1 Inhibition Assay; format: biochemical; conditions: Absolute IC50, 5.0 μM ATP, GST-Cdc25c (1-206) substrate, 60 min; MSR 3.6
T1 construct: made in house; host or cells: baculovirus-infected Sf9 cells, treated with okadaic acid before harvest; the substrate was made in E. coli BL21
Text: Human Plk1 cDNA, which may be obtained from a number of sources, such as Incyte (accession number: NM_005030), may be directly linked at one of its termini with a polynucleotide sequence expressing a His6 tag, such as the C-terminal FLAG-His6 tag, and inserted into an appropriate expression vector, such as a pFastBac™ vector (Invitrogen) and transfected into an appropriate system, such as baculovirus similar to what has been reported by Yue-Wei Qian, et al., Science, 282, 1701 (1998) for xPlkk1. If a viral expression system is used, then the virus (e.g., baculovirus bearing a Plk1-Flag-His6 tag polynucleotide construct) is infected into a culture of a suitable host cell, such as Sf9 cells. […]
Plk1 kinase reactions contain Plk1-Flag-His6 tag fusion enzyme (0.2 ng/μL) in a buffer containing 50 mM HEPES, pH 7.3, 1.0 mM dithiothreitol, 5.0 μM ATP, 10 mM MgCl2, 0.01% TRITON® X-100, 0.4 μCi ^33P-ATP, and 0.06 μg/μL GST-Cdc25c (1-206) peptide. […] Wells are dried before addition of 40 μL of MicroScint™ 20 (Packard) and then counted on a Wallac MICROBETA® Jet. The percentage inhibition values from the 10-point concentration response data are subsequently analyzed, for example, using ACTIVITY BASE™ software (IDBS), using a 4-parameter logistic equation. Absolute IC50 values are calculated from the resulting curve fit.

T1 sequence (P53350 whole entry): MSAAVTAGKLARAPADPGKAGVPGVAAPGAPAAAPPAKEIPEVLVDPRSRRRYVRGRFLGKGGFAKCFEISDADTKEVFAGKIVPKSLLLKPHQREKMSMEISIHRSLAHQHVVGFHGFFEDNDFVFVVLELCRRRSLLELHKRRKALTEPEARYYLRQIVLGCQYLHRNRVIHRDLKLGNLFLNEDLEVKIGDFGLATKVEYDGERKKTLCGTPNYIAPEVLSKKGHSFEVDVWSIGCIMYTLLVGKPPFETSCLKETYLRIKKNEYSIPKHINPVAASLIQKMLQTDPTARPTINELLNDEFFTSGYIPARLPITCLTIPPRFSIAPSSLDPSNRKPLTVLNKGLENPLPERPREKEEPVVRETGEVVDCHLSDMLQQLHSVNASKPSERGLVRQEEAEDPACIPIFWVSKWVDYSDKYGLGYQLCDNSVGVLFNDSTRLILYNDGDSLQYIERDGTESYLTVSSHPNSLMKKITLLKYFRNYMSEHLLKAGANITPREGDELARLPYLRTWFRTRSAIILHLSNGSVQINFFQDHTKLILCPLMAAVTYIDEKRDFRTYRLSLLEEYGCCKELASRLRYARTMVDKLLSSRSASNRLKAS

| EC50 ([5]; n=1, MSR 2.5, read-out: mitotic EC50) | EC50 ([5]; n=1, MSR 2.6, read-out: pHH3(s10) EC50) | EC50 ([5]; n=2, MSR 2.4, read-out: DNA content EC50) | IC50 [6] | IC50 [7] | Structure (SMILES) | activity in preclinical model [1] | activity in preclinical model [2] | activity in preclinical model [3] | clearance (CL) [4] | dose limiting toxicity [4] |
| --- | --- | --- | --- | --- | --- | --- | --- | --- | --- | --- |
| – | – | – | – | – | CC[C@@H]1C(=O)N(C)c2cnc(Nc3ccc(C(=O)NC4CCN(C)CC4)cc3OC)nc2N1C1CCCC1 [BI-2536] | demonstrated activity | demonstrated activity | demonstrated activity | > 1000 mL/min | dose limited by myelosupression |
| 22 nM | 24 nM | 35 nM | 44 nM | ~25 nM | CN(C)Cc1cnc(F)cc1-c1cccc2cc(-c3ccnc(NCCN4CCNC4=O)n3)sc12 [Example 4, 1-(2-{4-[7-(5-((Dimethylamino)methyl)-2-fluoropyridin-4-yl)benzo[b]thiophen-2-yl]pyrimidin-2-ylamino}ethyl)imidazolidin-2-one] | – | – | – | – | – |
